Experimental findings from ChEMBL document CHEMBL1201862, “PubChem BioAssay data set” (2004) are described below.

Some test systems named below: CCRF-CEM; MDA-MB-435; HCC 2998; K562; SK-OV-3; NCI/ADR-RES; PC-3; LOX IMVI; HCT-116; OVCAR-4; A549; NCI-H226; SF-539; DU-145; 786-0; EKVX; OVCAR-8; UACC-257; Malme-3M; SNB-19.
Holding throughout (experiment): growth of human tumour cells (NCI), 48 h

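A five-concentration, 48-hour dose response in 96-well plates underlies each endpoint, interpolated linearly between surrounding concentrations. The concentration for 50% growth inhibition is given as GI50.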 Activity calls are given as the source filed them. No stated cut-off is given here; in the data, active = GI50 up to about 1.1 µM and inactive = higher.

With `NC1=NCCN1CC(=O)O` [CYCLOCREATINE], the GI50 in the assay on CCRF-CEM, in the assay on MDA-MB-435, in the assay on HCC 2998, in the assay on K562, in the assay on SK-OV-3 and in the assay with NCI/ADR-RES was > 1000 µM (inactive) each time. The GI50 with PC-3, in the assay with LOX IMVI, in the assay on HCT-116, in the assay with OVCAR-4, in the assay on A549 and in the assay with NCI-H226 was > 1000 µM (inactive) each time. In addition, the GI50 with SF-539 was > 1000 µM (inactive); in the assay with DU-145, > 1000 µM (inactive); in the assay with 786-0, > 1000 µM (inactive); with EKVX, > 10000 µM (inactive); in the assay on OVCAR-8, > 1000 µM (inactive); in the assay with UACC-257, > 1000 µM (inactive). Further, the GI50 in the assay on Malme-3M and in the assay with SNB-19 was > 1000 µM (inactive) in each case.

Regarding `Oc1ccc(SCc2ccc(NCc3ccccc3)cc2)cc1`, the GI50 was 1.24 µM (inactive) with CCRF-CEM; 18.2 µM (inactive) in the assay with MDA-MB-435; 25.2 µM (inactive) in the assay on HCC 2998; 31.5 µM (inactive) with K562; 62.8 µM (inactive) in the assay with SK-OV-3; 30.3 µM (inactive) in the assay on NCI/ADR-RES. In addition, the GI50 was 18.9 µM (inactive) with PC-3; 19.9 µM (inactive) in the assay on LOX IMVI; 46.6 µM (inactive) with HCT-116; 18.1 µM (inactive) in the assay on OVCAR-4; 22.1 µM (inactive) in the assay on A549; 98.2 µM (inactive) in the assay on NCI-H226. Moreover, the GI50 with SF-539 was 36.6 µM (inactive); in the assay with DU-145, 32 µM (inactive); in the assay on 786-0, 0.869 µM (active); in the assay with EKVX it was 19.4 µM (inactive); with OVCAR-8 it was 37.8 µM (inactive); with UACC-257, 29.9 µM (inactive). The GI50 was 31.7 µM (inactive) in the assay with Malme-3M and 23.9 µM (inactive) with SNB-19.

As for `O=C1C=CC=C/C1=C1\N=C(c2ccccc2OCC(=O)c2ccc(Br)cc2)SS1`, the GI50 in the assay with CCRF-CEM was > 100 µM (inactive); in the assay with MDA-MB-435, > 100 µM (inactive); in the assay on HCC 2998, > 100 µM (inactive); with K562 it was > 100 µM (inactive); in the assay on SK-OV-3, 34.3 µM (inactive); in the assay with NCI/ADR-RES, > 100 µM (inactive). The GI50 was > 100 µM (inactive) in the assay on PC-3; > 100 µM (inactive) with LOX IMVI; 78.9 µM (inactive) in the assay on HCT-116; 40.1 µM (inactive) in the assay on OVCAR-4; > 100 µM (inactive) with A549; 48 µM (inactive) in the assay on NCI-H226. Further, the GI50 is 24.4 µM (inactive) in the assay on SF-539; > 100 µM (inactive) in the assay with DU-145; 31.5 µM (inactive) with 786-0; 89.9 µM (inactive) in the assay with EKVX; 93.5 µM (inactive) with OVCAR-8; > 100 µM (inactive) in the assay with UACC-257. Further, the GI50 in the assay on Malme-3M and in the assay on SNB-19 was > 100 µM (inactive) throughout.

As for `NC1=CN2c3ccccc3N(CC(=O)O)C2C=C1` (stereo not given), the GI50 in the assay on CCRF-CEM, with MDA-MB-435, with HCC 2998, with K562, in the assay with SK-OV-3 and with NCI/ADR-RES was > 100 µM (inactive) in each case. Further, the GI50 in the assay with PC-3, with LOX IMVI, with HCT-116, with OVCAR-4, in the assay on A549 and with NCI-H226 was > 100 µM (inactive) in each case. Further, the GI50 with SF-539, with DU-145, in the assay on 786-0, in the assay with EKVX, with OVCAR-8 and with UACC-257 was > 100 µM (inactive) each time. Besides, the GI50 in the assay with Malme-3M and in the assay with SNB-19 was > 100 µM (inactive) in each case.

Turning to `COC(=O)C(COC(=O)/C=C/c1ccc(OC(C)=O)c(OC(C)=O)c1)NC(=O)/C=C/c1ccc(OC(C)=O)c(OC(C)=O)c1` (stereo not given), the GI50 with CCRF-CEM was 16.1 µM (inactive); with MDA-MB-435 it was 28.3 µM (inactive); in the assay with HCC 2998, 19.4 µM (inactive); in the assay with K562, > 100 µM (inactive); with SK-OV-3 it was 67 µM (inactive); in the assay on NCI/ADR-RES it was 45.8 µM (inactive). Moreover, the GI50 was 13.6 µM (inactive) in the assay with PC-3; 16.3 µM (inactive) with LOX IMVI; 19.2 µM (inactive) with HCT-116; 20.7 µM (inactive) in the assay with OVCAR-4; 40.9 µM (inactive) in the assay on A549; 36.2 µM (inactive) with NCI-H226. Besides, the GI50 with SF-539 is 31.8 µM (inactive); in the assay with DU-145, 20.8 µM (inactive); in the assay with 786-0, 17.9 µM (inactive); with EKVX, 25.5 µM (inactive); in the assay on OVCAR-8, 30.4 µM (inactive); in the assay on UACC-257, 44.4 µM (inactive). Moreover, the results for the GI50 in the assay with Malme-3M and in the assay with SNB-19 were 11.3 µM (inactive) and 22.9 µM (inactive), respectively.

In the case of `COC(=O)c1c(CC(Cc2ccc3c(c2)CCCC3)C(=O)O)ccc2c1CCCC2` (stereo not given), the GI50 was 45.4 µM (inactive) with CCRF-CEM; 34.2 µM (inactive) in the assay on MDA-MB-435; 32.4 µM (inactive) in the assay with HCC 2998; 34.7 µM (inactive) with K562; 41 µM (inactive) with SK-OV-3; 17.9 µM (inactive) with NCI/ADR-RES. The GI50 was 36.4 µM (inactive) with PC-3; 17.5 µM (inactive) in the assay with LOX IMVI; 17.9 µM (inactive) in the assay with HCT-116; 34.5 µM (inactive) in the assay with OVCAR-4; 34.1 µM (inactive) in the assay on A549; 39.9 µM (inactive) in the assay on NCI-H226. Further, the GI50 in the assay on SF-539 was 22.5 µM (inactive); in the assay on DU-145, 39.6 µM (inactive); with 786-0, 36.1 µM (inactive); with EKVX, 25.2 µM (inactive); in the assay on OVCAR-8 it was 36.2 µM (inactive); in the assay on UACC-257 it was 16 µM (inactive). The GI50 in the assay on Malme-3M was 31.3 µM (inactive); in the assay with SNB-19 it was 40.7 µM (inactive).

Regarding `Cc1nc2ccccc2n1Cc1ccc(NC(=S)NC2CCCCC2)cc1`, the GI50 in the assay with CCRF-CEM was 10 µM (inactive); in the assay with MDA-MB-435 it was 6.84 µM (inactive); with HCC 2998, 36.6 µM (inactive); in the assay on K562, 14.7 µM (inactive); with SK-OV-3, > 92.7 µM (inactive); in the assay with NCI/ADR-RES, 35.6 µM (inactive). For the same molecule, the GI50 in the assay with PC-3 is 31.3 µM (inactive); in the assay on LOX IMVI, 10.6 µM (inactive); in the assay on HCT-116, 34.9 µM (inactive); in the assay with OVCAR-4, 10.1 µM (inactive); in the assay on A549, 17.4 µM (inactive); in the assay on NCI-H226, 24.9 µM (inactive). The GI50 was > 72.3 µM (inactive) with SF-539; 36.8 µM (inactive) with DU-145; 36.9 µM (inactive) in the assay with 786-0; 12.3 µM (inactive) in the assay on EKVX; 30.9 µM (inactive) with OVCAR-8; 13.5 µM (inactive) with UACC-257. Moreover, the GI50 in the assay with Malme-3M was 21.7 µM (inactive); in the assay on SNB-19 it was 32.8 µM (inactive).

Take `Cc1c(/C=N/NC(=S)Nc2ccc(Cl)cc2)c(=O)n(-c2ccccc2)n1C`: the GI50 in the assay on CCRF-CEM was > 75.2 µM (inactive); in the assay on MDA-MB-435 it was > 100 µM (inactive); in the assay on HCC 2998 it was > 100 µM (inactive); with K562, > 100 µM (inactive); in the assay with SK-OV-3 it was 18.2 µM (inactive); in the assay on NCI/ADR-RES, 17.3 µM (inactive). Further, the GI50 in the assay on PC-3 was > 52.1 µM (inactive); in the assay on LOX IMVI it was 32.6 µM (inactive); in the assay on HCT-116 it was 24.9 µM (inactive); in the assay on OVCAR-4, 24.5 µM (inactive); in the assay on A549, 33.7 µM (inactive); in the assay on NCI-H226, 18.7 µM (inactive). The GI50 with SF-539 is 15 µM (inactive); in the assay with DU-145 it was 42.7 µM (inactive); in the assay on 786-0, 16.3 µM (inactive); in the assay on EKVX it was 22.6 µM (inactive); in the assay with OVCAR-8, 24.9 µM (inactive); in the assay with UACC-257, > 83.6 µM (inactive). Moreover, the results for the GI50 with Malme-3M and with SNB-19 were > 34.7 µM (inactive) and 27.9 µM (inactive), respectively.

As to `C[C@H](NC(=O)c1ccc(CNC(=O)/C=C/c2cccc(Oc3ccccc3)c2)cc1)c1ccccc1`, the GI50 in the assay with CCRF-CEM, in the assay on MDA-MB-435, with HCC 2998, in the assay on K562, with SK-OV-3 and in the assay with NCI/ADR-RES was > 100 µM (inactive) throughout. For the same molecule, the GI50 with PC-3 is > 100 µM (inactive); with LOX IMVI, > 100 µM (inactive); with HCT-116, > 100 µM (inactive); with OVCAR-4, 83.2 µM (inactive); with A549, 55.8 µM (inactive); in the assay on NCI-H226, 32.7 µM (inactive). Besides, the GI50 in the assay with SF-539 was 27 µM (inactive); with DU-145 it was > 100 µM (inactive); in the assay with 786-0, 36.5 µM (inactive); in the assay with EKVX, > 100 µM (inactive); with OVCAR-8 it was > 100 µM (inactive); in the assay with UACC-257, > 100 µM (inactive). The GI50 in the assay with Malme-3M is > 100 µM (inactive); with SNB-19 it was 37.8 µM (inactive).
